Measured values: ChEMBL document CHEMBL4396876, “Antisulfatase, Osteogenic, and Anticancer Activities of Steroid Sulfatase Inhibitor EO-33 in Mice” (J Med Chem, 2019)

Assay: Toxicity in nu/nu Br athymic mouse xenografted with human E2S-stimulated MCF7 cells assessed as whitish deposit at injection site at 30 mg/kg, sc administered 6 days per week for 28 days using MC/EtOH formulation by TLC analysis
Conditions: in vivo

## Cc1ccc(CN(Cc2ccc(C(=O)N3CCc4ccc(OS(N)(=O)=O)cc4C3)cc2)Cc2ccco2)s1
  Activity: Toxic
